From ChEMBL document CHEMBL4842383 (J Med Chem, 2021)
pEC50, pIC50: −log10 of the molar value. Calls of active or inactive are those of the source. The calls are words filed in the database; no cut-off is given here.

Assays:
Mus musculus [1] = experiment: Immunomodulatory activity in mouse MC38 cells inoculated C57BL/6 mouse syngeneic model assessed as increase in M1 to M2 like TAM ratio in tumor at 100 mg/kg, po twice a day for 2 weeks by five days on/two days off schedule relative to control; assay type: functional, organism-based; conditions: MC-38
[2] = target: T1, Aurora kinase A (Homo sapiens) (UniProt O14965); experiment: Inhibition of recombinant GST-AURKA (residues Ser123 to Ser401) (unknown origin) expressed in Sf9 insect cells using tetra(-LRRASLG) peptide as substrate at 1 uM incubated for 90 mins by ATP Kinase Glo assay
T1 sequence (whole entry): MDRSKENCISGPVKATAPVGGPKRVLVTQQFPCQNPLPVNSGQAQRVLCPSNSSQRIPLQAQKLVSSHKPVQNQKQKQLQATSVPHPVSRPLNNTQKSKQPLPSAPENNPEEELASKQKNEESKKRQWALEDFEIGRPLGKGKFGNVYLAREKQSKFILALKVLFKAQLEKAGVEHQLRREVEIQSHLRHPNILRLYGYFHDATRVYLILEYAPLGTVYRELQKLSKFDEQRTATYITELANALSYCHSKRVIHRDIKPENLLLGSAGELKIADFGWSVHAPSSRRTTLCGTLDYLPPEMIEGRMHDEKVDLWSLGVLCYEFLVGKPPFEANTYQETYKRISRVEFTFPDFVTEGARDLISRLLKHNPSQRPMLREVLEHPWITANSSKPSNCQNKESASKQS

Aurora kinase B [3] = target: T2, Aurora kinase B (Homo sapiens, UniProt Q96GD4); experiment: Inhibition of human recombinant full length GST-AURKB using tetra(-LRRASLG) peptide as substrate at 0.1 uM incubated for 20 mins by ATP Kinase Glo assay; assay type: biochemical; conditions: Sf9
[4] = target: T3, Macrophage colony-stimulating factor 1 receptor (Mus musculus) (UniProt P09581); experiment: Inhibition of CSF1R phosphorylation in mouse RAW264.7 cells by Western blotting analysis; assay type: cell-based
T3 sequence (whole entry): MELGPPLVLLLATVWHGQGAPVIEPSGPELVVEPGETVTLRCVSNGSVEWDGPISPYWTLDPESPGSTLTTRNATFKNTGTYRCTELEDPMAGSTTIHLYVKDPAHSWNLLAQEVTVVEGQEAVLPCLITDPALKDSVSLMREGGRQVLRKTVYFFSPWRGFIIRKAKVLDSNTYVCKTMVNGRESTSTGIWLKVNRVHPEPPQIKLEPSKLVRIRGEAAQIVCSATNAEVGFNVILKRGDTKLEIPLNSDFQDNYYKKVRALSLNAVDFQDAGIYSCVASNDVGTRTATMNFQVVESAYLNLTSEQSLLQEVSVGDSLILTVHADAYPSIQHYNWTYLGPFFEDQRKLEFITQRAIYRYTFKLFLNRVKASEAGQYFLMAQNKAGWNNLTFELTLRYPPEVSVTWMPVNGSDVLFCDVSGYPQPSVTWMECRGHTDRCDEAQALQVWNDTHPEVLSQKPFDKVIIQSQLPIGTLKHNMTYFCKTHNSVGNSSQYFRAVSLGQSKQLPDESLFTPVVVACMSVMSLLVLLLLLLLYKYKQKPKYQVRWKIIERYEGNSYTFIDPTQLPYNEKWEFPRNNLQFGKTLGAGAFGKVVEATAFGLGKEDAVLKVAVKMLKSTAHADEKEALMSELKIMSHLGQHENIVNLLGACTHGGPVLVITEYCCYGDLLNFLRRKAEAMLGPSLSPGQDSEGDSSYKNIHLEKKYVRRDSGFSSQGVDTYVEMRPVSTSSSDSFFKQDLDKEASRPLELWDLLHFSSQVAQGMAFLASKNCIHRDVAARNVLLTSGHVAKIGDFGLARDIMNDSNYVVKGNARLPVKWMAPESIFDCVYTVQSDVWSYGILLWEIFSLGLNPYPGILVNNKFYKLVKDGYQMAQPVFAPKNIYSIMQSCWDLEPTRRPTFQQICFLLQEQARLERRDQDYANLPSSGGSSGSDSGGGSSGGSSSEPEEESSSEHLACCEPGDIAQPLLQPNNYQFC

[5] = target: T4, Macrophage colony-stimulating factor 1 receptor (Homo sapiens, UniProt P07333); experiment: Inhibition of CSF1R phosphorylation in human THP-1 cells by Western blotting analysis; assay type: cell-based
RAW264.7 = experiment: Anti-inflammatory activity mouse RAW264.7 cells assessed as inhibition of LPS-induced TNFalpha production by ELISA; assay type: functional, cell-based
Mus musculus [6] = experiment: Immunomodulatory activity in mouse MC38 cells inoculated C57BL/6 mouse syngeneic model assessed as increase in cytotoxic CD8+ T cell to M2 like TAM ratio in tumor at 100 mg/kg, po twice a day for 2 weeks by five days on/two days off schedule relative to control; assay type: functional, organism-based; conditions: MC-38
[7] = target: T4, Macrophage colony-stimulating factor 1 receptor; experiment: Inhibition of human recombinant GST-CSF1R (residues L534 to C972) expressed in Sf9 insect cells using poly(Glu,Tyr) as substrate incubated for 20 mins by ATP Kinase Glo assay
BaF3 = experiment: Antiproliferative activity against mouse BaF3 cells transfected with human ETV6-CSF1R assessed as reduction in cell viability measured after 72 hrs by MTS method; conditions: BaF3, 72 h
NFS-60 = experiment: Antiproliferative activity against mouse NFS-60 cells transfected with human ETV6-CSF1R assessed as reduction in cell viability measured after 72 hrs by MTS method; assay type: functional, cell-based; conditions: NFS-60, 72 h
[8] = Half life in Sprague-Dawley rat at 5 mg/kg, iv measured up to 24 hrs by LC-MS/MS analysis; assay type: ADME, organism-based; conditions: in vivo
[9] = Clearance in Sprague-Dawley rat at 5 mg/kg, iv measured up to 24 hrs by LC-MS/MS analysis; assay type: ADME, organism-based; conditions: in vivo
[10] = Volume of distribution at steady state in Sprague-Dawley rat at 5 mg/kg, iv measured up to 24 hrs by LC-MS/MS analysis; assay type: ADME, organism-based; conditions: in vivo, read-out: Vdss
[11] = Dose normalized AUC (0 to inf) in Sprague-Dawley rat at 5 mg/kg, iv measured up to 24 hrs by LC-MS/MS analysis; assay type: ADME, organism-based; conditions: in vivo
[12] = Half life in Sprague-Dawley rat at 20 to 25 mg/kg, po measured up to 24 hrs by LC-MS/MS analysis; assay type: ADME, organism-based; conditions: in vivo, dose 20-25 mg/kg
[13] = Dose normalized Cmax in Sprague-Dawley rat at 20 to 25 mg/kg, po measured up to 24 hrs by LC-MS/MS analysis; assay type: ADME, organism-based; conditions: in vivo, dose 20-25 mg/kg
[14] = Tmax in Sprague-Dawley rat at 20 to 25 mg/kg, po measured up to 24 hrs by LC-MS/MS analysis; assay type: ADME, organism-based; conditions: in vivo, dose 20-25 mg/kg
[15] = Dose normalized AUC (0 to inf) in Sprague-Dawley rat at 20 to 25 mg/kg, po measured up to 24 hrs by LC-MS/MS analysis; assay type: ADME, organism-based; conditions: in vivo, dose 20-25 mg/kg
[16] = Oral bioavailability in Sprague-Dawley rat at 20 to 25 mg/kg measured up to 24 hrs by LC-MS/MS analysis; assay type: ADME, organism-based; conditions: in vivo, dose 20-25 mg/kg
Aurora kinase A = target: T5, Aurora kinase A (Homo sapiens, UniProt O14965); experiment: Inhibition of recombinant GST-AURKA (residues Ser123 to Ser401) (unknown origin) expressed in Sf9 insect cells using tetra(-LRRASLG) peptide as substrate incubated for 90 mins by ATP Kinase Glo assay
T5 sequence (O14965 whole entry): T1 sequence (whole entry)

Aurora kinase B [17] = target: T2, Aurora kinase B; experiment: Inhibition of human recombinant full length GST-AURKB using tetra(-LRRASLG) peptide as substrate incubated for 20 mins by ATP Kinase Glo assay; parameters: species or system Sf9
BMDM [18] = experiment: Growth inhibition of CSF1-induced mouse BMDM cell assessed as inhibition of M2 like macrophage growth incubated for 3 days by WST-8 assay; conditions: 72 h
BMDM [19] = experiment: Growth inhibition of CSF2-induced mouse BMDM cell assessed as inhibition of M1 like macrophage growth for 3 days by WST-8 assay; conditions: 72 h

T2 sequence (Q96GD4 whole entry): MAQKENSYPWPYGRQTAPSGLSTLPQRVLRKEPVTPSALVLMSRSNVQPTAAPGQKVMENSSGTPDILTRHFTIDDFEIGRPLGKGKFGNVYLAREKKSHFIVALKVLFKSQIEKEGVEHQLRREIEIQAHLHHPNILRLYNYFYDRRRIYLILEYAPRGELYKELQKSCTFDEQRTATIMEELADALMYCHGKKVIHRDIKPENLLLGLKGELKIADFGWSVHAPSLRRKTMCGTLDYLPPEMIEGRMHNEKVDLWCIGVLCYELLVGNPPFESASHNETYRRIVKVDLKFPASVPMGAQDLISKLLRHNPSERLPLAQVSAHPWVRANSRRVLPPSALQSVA
T4 sequence (P07333 whole entry): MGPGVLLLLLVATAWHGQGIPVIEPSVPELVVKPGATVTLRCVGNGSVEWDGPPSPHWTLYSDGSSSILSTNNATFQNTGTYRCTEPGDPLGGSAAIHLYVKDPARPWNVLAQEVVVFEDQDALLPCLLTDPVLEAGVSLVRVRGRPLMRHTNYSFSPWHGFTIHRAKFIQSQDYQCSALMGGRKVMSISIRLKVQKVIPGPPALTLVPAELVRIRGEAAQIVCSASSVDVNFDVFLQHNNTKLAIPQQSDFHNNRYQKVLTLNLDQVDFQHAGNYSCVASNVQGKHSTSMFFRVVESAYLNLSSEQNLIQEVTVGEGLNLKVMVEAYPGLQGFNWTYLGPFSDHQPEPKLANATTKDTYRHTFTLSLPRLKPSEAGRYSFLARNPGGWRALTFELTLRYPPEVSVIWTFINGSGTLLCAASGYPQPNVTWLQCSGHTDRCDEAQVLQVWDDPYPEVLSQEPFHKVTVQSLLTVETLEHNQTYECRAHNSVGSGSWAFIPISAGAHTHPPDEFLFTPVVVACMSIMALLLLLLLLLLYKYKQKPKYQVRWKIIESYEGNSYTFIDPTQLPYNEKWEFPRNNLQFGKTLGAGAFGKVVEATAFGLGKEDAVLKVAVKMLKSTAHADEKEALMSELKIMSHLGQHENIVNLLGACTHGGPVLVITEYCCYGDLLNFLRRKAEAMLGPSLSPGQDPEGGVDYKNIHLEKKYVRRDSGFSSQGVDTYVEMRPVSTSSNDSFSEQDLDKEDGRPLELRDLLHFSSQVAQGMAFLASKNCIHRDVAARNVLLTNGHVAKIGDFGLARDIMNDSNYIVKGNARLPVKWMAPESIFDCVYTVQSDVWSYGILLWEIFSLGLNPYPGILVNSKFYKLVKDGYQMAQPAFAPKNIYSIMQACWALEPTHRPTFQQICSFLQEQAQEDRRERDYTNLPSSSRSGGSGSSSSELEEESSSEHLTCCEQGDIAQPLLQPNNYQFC

Structure (SMILES) | inhibition [2] | inhibition (Aurora kinase B [3]) | pIC50 [7] | pEC50 (BaF3) | pEC50 (NFS-60) | half-life [8] | clearance [9] | Vd [10] | AUCt/dose [11] | half-life [12] | Cmax/dose [13] | Tmax [14] | AUCt/dose [15] | bioavailability [16] | further results
CN(C)c1ccc2c(Oc3ccc(NC(=O)NCc4ccc(C(F)(F)F)nc4)cc3)ncnc2c1 | 7% | 16% |  |  |  |  |  |  |  |  |  |  |  |  | Activity (Mus musculus [1]): Active; inhibition [4]: Dose-Dependent Effect; inhibition [5]: Dose-Dependent Effect; inhibition (RAW264.7): Active; Activity (Mus musculus [6]): Active
COc1ccc(CNC(=O)Nc2ccc(Oc3ncnc4cc(N(C)C)ccc34)cc2)cc1 | 6% | 29% | 7.89 | 7.04 | 7.09 | 1240 min | 16.5 mL/min/kg | 9 L/kg | 1252 ng.hr/mL per mg/kg | 402 min | 1.7 ng/mL | 6 h | 15 ng.hr/mL per mg/kg | 1.6% | 
Cc1ccc(CNC(=O)Nc2ccc(Oc3ncnc4cc(N(C)C)ccc34)cc2)cn1 | 4% | 9% | 7.96 | 7.42 | 7.17 | 630 min | 5.6 mL/min/kg | 1.5 L/kg | 1578 ng.hr/mL per mg/kg | 144 min | 21 ng/mL | 3.2 h | 164 ng.hr/mL per mg/kg | 10.4% | 
CN(C)c1ccc2c(Oc3ccc(NC(=O)NCc4ccc(F)cc4)cc3)ncnc2c1 | 5% | 27% | 8.08 | 7.34 | 7.16 | 198 min | 12.2 mL/min/kg | 1.4 L/kg | 1225 ng.hr/mL per mg/kg | 1450 min | 56 ng/mL | 0.5 h | 89 ng.hr/mL per mg/kg | 7.3% | pIC50 (Aurora kinase A): < 5.00
FC(F)(F)c1ccc(CNc2ccc(Cc3c[nH]c4ncc(Cl)cc34)cn2)cn1 [PEXIDARTINIB] | 63% |  |  | 6.70 | 6.53 |  |  |  |  |  |  |  |  |  | pIC50 (Aurora kinase B [17]): 6.19; pIC50 (BMDM [18]): 7.25; pIC50 (BMDM [19]): < 5.00
COc1ccc(CNC(=O)Nc2ccc(Oc3ncnc4cc(N(C)C)ccc34)cc2)cn1 | 2% | 18% | 7.90 | 7.06 | 7.17 | 72 min | 24.7 mL/min/kg | 1.4 L/kg | 767 ng.hr/mL per mg/kg | 288 min | 35 ng/mL | 2.3 h | 236 ng.hr/mL per mg/kg | 30.7% | 
COc1ccc(NC(=O)Nc2ccc(Oc3ncnc4cc(N(C)C)ccc34)cc2)cc1 | 23% | 34% | 7.85 | 7.64 | 7.64 | 96 min | 5.6 mL/min/kg | 0.7 L/kg | 2842 ng.hr/mL per mg/kg | 240 min | 10.6 ng/mL | 2.7 h | 91 ng.hr/mL per mg/kg | 3.2% | pIC50 (Aurora kinase A): < 5.00; pIC50 (Aurora kinase B [17]): 7.65
